Earlier results in patent US20200029555A1, “BIODEGRADABLE HYDROGEL TO DELIVER AQUEOUS BAIT TO CONTROL PEST ANTS” (priority 2016, published 2020).

Key:
Argentine ants = conditions: 0.001% liquid thiamethoxam
[1] = test system: laboratory colonies of queens and workers; conditions: liquid baits 0.00001-0.005% thiamethoxam; 14-day period

CN1COCN(Cc2cnc(Cl)s2)/C1=N\[N+](=O)[O-] [thiamethoxam]
reduction of Argentine ants in urban settings (Argentine ants): successfully reduced | mortality of laboratory colonies of queens and workers [1]: complete mortality
